Starred links: 1 amine or outer side, 2 acyl side, 3 side chain; linkers in the order of their positions; H or OH if unused. Non-standard residues stand in square brackets, D forms with d. Residues, ends and D or L forms follow the SMILES beside them. αMeNva(5-ylidene) = C[C@@](CCC=[*:3])(N[*:1])C(=O)[*:2]; S5 = C=CCCC[C@](C)(N)C(=O)O A value given as a limit tells only on which side of the number the result lay.

Series [1] has as its target T1, HIV-1 integrase (IN) (Human immunodeficiency virus type 1 group M subtype B, UniProt P04585). Nature of the series: In vitro HIV-1 IN catalytic activity inhibition, 3′-processing. The format is biochemical.
Series [2] addresses T1, HIV-1 integrase (IN). Nature of the series: In vitro HIV-1 IN catalytic activity inhibition, strand transfer. The format is biochemical.
The test system of a further series is MT-4 cells. Nature of the series: Cytotoxicity in MT-4 cells. The format is cell-based. Conditions: 50% cell-death in same cells (MT-4).
A further series has as its system HIV-1. The settings on record: 50% cytoprotective activity in HIV-1 infected MT-4 cells.

`C=CCCC[C@](C)(NC(=O)[C@H](CC(C)C)NC(=O)[C@H](CCCCN)NC(=O)[C@H](CC(C)C)NC(=O)[C@](C)(CCCC=C)NC(=O)[C@H](Cc1ccccc1)NC(=O)[C@H](Cc1ccc(O)cc1)NC(=O)[C@H](C)NC(=O)[C@@H](N)[C@@H](C)O)C(=O)NCC(=O)N[C@@H](CCCNC(=N)N)C(=O)N[C@@H](Cc1c[nH]c2ccccc12)C(N)=O` [NLH5] (H-TAYF[S5]LKL[S5]GRW-NH2; N-terminus assumed): the figures for the IC50 at HIV-1 integrase (IN) [1] and at HIV-1 integrase (IN) [2] were 9 ± 1 µM and 6 ± 1 µM, respectively. Besides, the cytotoxic concentration (CC50) in the series on MT-4 cells was determined as 28 µM. The same compound gave an EC50 in the series with HIV-1 of 28 µM.
For the compound `C=CCC[C@](C)(NC(=O)[C@H](CC(C)C)NC(=O)[C@H](CCCCN)NC(=O)[C@H](CC(C)C)NC(=O)[C@](C)(CCC=C)NC(=O)[C@H](Cc1ccccc1)NC(=O)[C@H](Cc1ccc(O)cc1)NC(=O)[C@H](C)NC(=O)[C@@H](N)[C@@H](C)O)C(=O)NCC(=O)N[C@@H](CCCNC(=N)N)C(=O)N[C@@H](Cc1c[nH]c2ccccc12)C(N)=O` [NLH11] (H-TAYF[αMeNva(5-ylidene)]LKL[αMeNva(5-ylidene)]GRW-NH2; N-terminus assumed), the figures for the concentration for half-maximal inhibition (IC50) on HIV-1 integrase (IN) [1] and against HIV-1 integrase (IN) [2] were 74 ± 11 µM and 68 ± 5 µM, respectively. In the series on MT-4 cells, this compound had a cytotoxic concentration (CC50) of 18 µM. The same compound gave an EC50 in the series on HIV-1 above 18 µM.

Usually IC50 stands for the point on the concentration scale where inhibition reaches its midpoint. Higher therefore signals weaker potency. The CC50 is the concentration that lowers cell viability or growth by half. As a reminder, the EC50 is the midpoint of the concentration-response curve. Read a low EC50 as an effect from little substance.

Values taken from article PMC6188661 (Journal of medicinal chemistry, 2013).
